From patent US20260327655A1, “SMALL-MOLECULE REGULATED ALTERNATIVE SPLICING” (priority 2023, published 2026) come the findings set out here.

Each structure is given as a SMILES string.

The test system of assay [1] is RS2-3 minigene (Firefly Luciferase), HEK-293T cells. Nature of the assay: Luciferase induction assay, RS2-3 with splice modulator compounds in HEK-293T cells. The format is cell-based. The settings on record: Homo sapiens, 18 hours, n of 3, read-out: Mean fold-induction of luciferase (relative to vehicle control). On the procedure:
(§1) HEK-293T cells were cultured in DMEM+10% FBS, collected after trypsinization, and then dispensed into 96-well plates (cell culture-treated). Each well of the plate was seeded with 1.0×10^5 cells in 100 μL culture medium. After a 1-hour incubation in a tissue culture incubator (5% CO2, 37 degrees C.), plasmid DNA was complexed with a transfection reagent, such as Lipofectamine 3000, and added to respective wells on the plate. Each well received an equivalent of 100 ng of plasmid DNA complexed with 0.15 μL Lipofectamine. Triplicate wells were used for each condition tested in the experiment. The plasmid utilized in the experiment encoded a CMV promoter upstream of the RS2-3 variant that controlled the expression of a Firefly Luciferase gene followed by a SV40 polyadenylation signal. After a 10-minute incubation at room temperature, either DMSO vehicle or specified compound at specified dose was added to the wells of the plate. Plates were then incubated for 18 hours in a tissue culture incubator. Endpoint analysis was performed by adding 100 uL Steady-Luc Firefly Luciferase substrate to each well of the assay plate. After mixing, the liquid contents of each was transferred to a 96-well plate, mixed again for 2 min on an orbital shaker, and incubated at room temperature for 5 min. Finally, the luminescent signal from each well was measured with a with PerkinElmer Envision plate reader. The results of this assay show RS2-3 responded to the majority of the splice modulator compounds used (FIG. 13C) Bars represent mean+/−standard deviation of 3 wells normalized to vehicle controls.

The subject of assay [2] is RS1-10 minigene (Firefly Luciferase), HEK-293T cells. Nature of the assay: Luciferase induction assay, RS1-10 with splice modulator compounds in HEK-293T cells. The format is cell-based. The settings on record: Homo sapiens, 18 hours, n of 3, read-out: Mean fold-induction of luciferase (relative to vehicle control). The method, then: as §1, with “of the RS I-10 variant that” for “of the RS2-3 variant that”, “assay show RS1-10 responded to” for “assay show RS2-3 responded to”, “compounds used in a dose responsive manner (FIG. 9C).” for “compounds used (FIG. 13C)”, “manner (FIG. 9C). Bars represent” for “used (FIG. 13C) Bars represent”

Assay [3] has as its system RS3-13 minigene (Firefly Luciferase), HEK-293T cells. The assay is described as follows: Luciferase induction assay, RS3-13 with splice modulator compounds in HEK-293T cells. The note with it: Homo sapiens, 18 hours, n of 3, read-out: Mean fold-induction of luciferase (relative to vehicle control). The format is cell-based. On the procedure:
as §1, with “RS3-13” for “the RS2-3 variant”, “RS3-13” for “RS2-3”, “14D)” for “13C)”

For the next assay, the system named is RS3-1 and variants. Nature of the assay: Luciferase induction assay, RS3-1 and variants in HEK-293T cells. The format is cell-based, human. The settings on record: 18 hours. The method, then:
(§2) HEK-293T cells were cultured in DMEM+10% FBS, collected after trypsinization, and dispensed into 96-well plates (cell culture-treated). Each well of the plate was seeded with 1.0×10^5 cells in 100 μL culture medium. After a 1-hour incubation in the tissue culture incubator (5% CO2, 37° C.), plasmid DNA was complexed with a transfection reagent, such as Lipofectamine 3000, and added to respective wells on the plate. Each well received 100 ng of plasmid DNA complexed with 0.15 μL Lipofectamine 3000. The plasmids utilized in the experiment encoded a CMV promoter upstream of the RS3-1 construct and variants that controlled the expression of a Firefly Luciferase gene followed by a SV40 polyadenylation signal. After a 10-minute incubation at room temperature, either DMSO vehicle or 116B at specified doses was added to the wells of the plate. Plates were then incubated for 18 hours in a tissue culture incubator. Endpoint analysis was performed by adding 100 μL of a Luciferase substrate, such as Steady-Luc Firefly Luciferase substrate, to each well of the assay plate. The liquid contents of each was transferred to a 96-well plate, mixed again for 2 min on an orbital shaker, and incubated at room temperature for 5 min. Finally, the luminescent signal from each well was measured with a plate reader. […]

A further assay relates to RS4-1 and variants. The assay is described as follows: Luciferase induction assay, RS4-1 and variants in HEK-293T cells. The format is cell-based, human. The note with it: 18 hours, FIGS. 15A, 15B. The method, then:
as §2, with “of the RS4-1 construct and” for “of the RS3-1 construct and”, “vehicle or 24 A at specified” for “vehicle or 116B at specified”, “adding 100 uL of a” for “adding 100 μL of a”

The next assay concerns RS1-10. Nature of the assay: Dose-response profiling assay, RS1-10 Flp-In-293 cell line. The format is cell-based. The note with it: 18 hours, FIGS. 9D-9F. On the procedure: Single-copy insertion of an switch construct and subsequent cell-line generation was performed in Flp-In-293 cells according to manufacturer's protocols. The RS1-10 sequence fused to a Firefly Luciferase gene was cloned into a Flp-In compatible pcDNA5/FRT expression vector with a CMV promoter and BGH polyadenylation signal. Resulting Flp-In cell line carried a single-copy expression cassette (RSwitch-controlled) integrated into the genome. The RS1-10 Flp-In cell line was cultured in DMEM+10% FBS, collected after trypsinization, and then dispensed into 96-well plates (cell culture-treated). Each well of the plate was seeded with 1.0×10^5 cells in 100 μL culture medium. Subsequently, either DMSO vehicle or a splice modulator compound at specified doses was added to the wells of the plate. Triplicate wells were used for each condition tested in the experiment. Plates were then incubated for 18 hours in a tissue culture incubator (5% CO2, 37° C.). Endpoint analysis was performed by adding 100 uL of a Luciferase substrate, such as Steady-Luc Firefly Luciferase substrate, to each well of the assay plate. The liquid contents of each was transferred to a 96-well plate, mixed again for 2 min on an orbital shaker, and incubated at room temperature for 5 min. Finally, the luminescent signal from each well was measured with a plate reader. Each plotted data point on a graph in a figure represents a mean of 3 wells+/−standard deviation normalized to vehicle controls. A nonlinear regression curve fit of the plotted data points was generated in graphing software.

Regarding `Cc1cn2cc(-c3nc(=O)n4cc(N5CCN[C@@H](C)C5)cc(F)c4n3)cc(F)c2n1` [Compound 116B, (S)-9-fluoro-2-(8-fluoro-2-methylimidazo[1,2-a]pyridine-6-yl)-7-(3-methylpiperazin-1-yl)-4H-pyrido[1,2-a][1,3,5]triazin-4-one], the fold induction at 0.1 µM came out at 19.8 in assay [1] (RS2-3, 100 nM); 71.8 in assay [2] (RS1-10, 100 nM); 33.4 in assay [3] (RS3-13, 100 nM). Also, the fold induction at 1 µM in assay [1] (RS2-3, 1,000 nM) was determined as 39.9; in assay [2] (RS1-10, 1,000 nM) it was 96.6; in assay [3] (RS3-13, 1,000 nM), 64.6. In the assay with RS3-1 and variants (100 nM (FIGS. 14A, 14B), 200 nM or 600 nM (FIG. 14C)), the “fold induction of luciferase compared to vehicle, constructs vs RS3-1” value was “Some of the constructs show higher fold induction of luciferase in the presence of 116B compared to vehicle than RS3-1”. Moreover, the “fold induction of luciferase, concentration dependence” value in the assay with RS3-1 and variants (RS3-1 variants, 200 nM and 600 nM (FIG. 14C)) is recorded as “higher fold induction of luciferase with higher concentrations of 116B”. In the assay on RS4-1 and variants, the fold-induction of luciferase result is listed as “increasing fold-induction of luciferase with increasing concentrations”.
As to `CCN1CC(c2ccc(-c3ccc(-c4cc(C)c5nn(C)cc5c4)cc3O)nn2)C1` [34 A, 5-(2,7-dimethyl-2H-indazol-5-yl)-2-[6-(1-ethylazetidin-3-yl)pyridazin-3-yl]phenol], the “fold-induction of luciferase signal, dose response” value with RS1-10 is reported as “increase in fold-induction of luciferase signal with increasing concentrations”.
The same measure, in the same setting: the result for `Cn1cc2cc(-c3ccc(-c4ccc(C5CN(C6CCOCC6)C5)nn4)c(O)c3)ccc2n1` [22 A, 5-(2-methyl-2H-indazol-5-yl)-2-{6-[1-(oxan-4-yl)azetidin-3-yl]pyridazin-3-yl}phenol] reads “increase in fold-induction of luciferase signal with increasing concentrations”.
